Patent US7078499B2, “Nucleotide analogues comprising a reporter moiety and a polymerase enzyme blocking moiety” (GE Healthcare UK Limited, priority 2000, dated 2006)

Tests used:
Format in all cases: biochemical
Pfu DNA polymerase = target: T1, Pfu DNA polymerase (Pyrococcus furiosus, UniProt P61875); experiment: Thermostable DNA polymerase primer extension, Pfu; parameters: key: −: No extension within assay time; +/−: up to 25% of primer extended by at least one base within assay time; +: up to 50% of primer extended by at least one base within assay time; ++: up to 75% of primer extended by at least one base within assay time; +++: essentially all primer extended by at least one base within assay time; details: DNA template, TTP replaced entirely by test compound, 45° C. for 20–40 minutes
T1 construct: purchased Stratagene Ltd
T1 sequence (P61875 1-775): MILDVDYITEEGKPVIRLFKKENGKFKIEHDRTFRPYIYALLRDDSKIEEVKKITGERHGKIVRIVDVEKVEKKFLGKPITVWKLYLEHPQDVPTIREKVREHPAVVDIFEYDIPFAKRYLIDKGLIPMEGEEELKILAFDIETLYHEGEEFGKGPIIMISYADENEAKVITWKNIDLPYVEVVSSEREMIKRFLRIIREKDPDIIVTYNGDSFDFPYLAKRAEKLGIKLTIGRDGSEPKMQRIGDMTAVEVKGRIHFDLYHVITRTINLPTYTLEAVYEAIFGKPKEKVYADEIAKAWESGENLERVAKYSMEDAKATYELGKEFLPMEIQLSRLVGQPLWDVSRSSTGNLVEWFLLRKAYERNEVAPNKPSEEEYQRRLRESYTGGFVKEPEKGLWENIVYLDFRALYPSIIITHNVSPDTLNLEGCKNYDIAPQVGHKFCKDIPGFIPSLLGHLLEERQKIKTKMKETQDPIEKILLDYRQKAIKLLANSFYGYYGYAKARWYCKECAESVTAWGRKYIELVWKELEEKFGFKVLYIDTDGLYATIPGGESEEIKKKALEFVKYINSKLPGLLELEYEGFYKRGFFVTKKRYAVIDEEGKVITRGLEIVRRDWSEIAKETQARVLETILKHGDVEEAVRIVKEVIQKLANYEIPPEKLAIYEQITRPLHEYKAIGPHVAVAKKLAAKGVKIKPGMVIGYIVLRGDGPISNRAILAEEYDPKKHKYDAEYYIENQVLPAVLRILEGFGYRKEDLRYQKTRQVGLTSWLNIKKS
Method: (§1) DNA polymerase assays were performed using Sequence 1 as primer and Sequence 2 as template. • Sequence 1 5′[Cy3]TAACTCATTAACAGGATC 3′ • Sequence 2 5′AT TCGCGGTATTCTGGTATGAAGCTTTTAGATCCTGTTAATGAGTTA GTA3′
(§2) The template (Sequence 2) was designed such that the base (underlined) immediately adjacent to the 3′ end of the hybridised primer is complementary to the nucleotide test compound. Nucleotide test compounds were compounds (6) (4′-C-(glycylaminomethyl)thymidine triphosphate), (8) (4′-C-(N-trifluoroacetyaminomethyl)thymidine triphosphate) and (9) (4′-C-(aminomethyl)thymidine triphosphate) as described above.
(§3) Primer extension reactions were performed using the above primers in the presence of 40 to 80 μM of nucleotide triphosphates. Positive control reactions contained all four native nucleotide triphosphates. For the other reactions the TTP was replaced with either a 2:1 ratio of […] for the terminator control, or entirely by the test compound The enzymes were used at a final concentration of 0.175 units/μl and a magnesium ion concentration of 2.5 mM in buffers supplied by the manufacturer. The primer and template concentrations were 0.5 pmol/μl and 2 pmol/μl respectively.
(§4) Extension reactions with thermophilic enzymes were performed by initially denaturing the fully assembled reactions at 70° C. for 5 min. followed by 45° C. for 20–40 minutes. The following enzymes were used: Taq DNA polymerase (Taq); Thermosequenase (TS); Thermosequenase II (TSII); Thermosequenase E (TSE), Tfl DNA polymerase (Tfl); Tth DNA polymerase (Tth), deltaTts DNA polymerase (deltaTts), deltaTts D DNA polymerase (dettaTTSD) (all from APBiotech); Pfu DNA polymerase (Pfu) (Stratagene Ltd); Vent™ DNA polymerase (Vent) (New England Biolabs).
The reactions were stopped by adding a 0.5 volume aliquot of 80% formamide containing 0.1% (w/v) bromophenol blue and 0.1% (w/v) cresol blue. […]
Gels were scanned for Cy3 fluorescence on a Molecular Dynamics Fluorimager and the data analysed using Molecular Dynamics ImageQuant 5 software. […]

phi-29 DNA polymerase = target: T2, phi-29 DNA polymerase (Bacillus phage phi29, UniProt P03680); experiment: Mesophilic DNA polymerase primer extension, phi-29; parameters: key to result of incorporation (termination / further chain extension): T: Incorporation results in termination; E: Incorporation permits further chain extension; T/E: Predominant product is primer extended by one base, but evidence of some further extension also observed; details: DNA template, 37° C. for 20–40 minutes; for primer extended by at least one base within assay time (grade): TTP replaced entirely by test compound
T2 construct: purchased AP Biotech
Method: as §1, §2, §3
Extension reactions preformed with mesophilic polymerases were carried out by mixing all the components of the reaction except the enzyme and heating to 70° C. for 5 min. After the reactions had cooled to room temperature 0.175 units of the enzyme were added and the reactions heated to 37° C. for 20–40 minutes. The following enzymes were used: T7 DNA polymerase (T7); Sequenase 2™ (Seq); Klenow fragment of DNA polymerase 1 (Klen); phi-29 DNA polymerase (Phi-29); T4 DNA polymerase (T4) (all from AP Biotech) and Bst DNA polymerase (Bst) (Cambio Ltd).
(§5) The reactions were stopped by adding a 0.5 volume aliquot of 80% formamide containing 0.1% (w/v) bromophenol blue and 0.1% (w/v) cresol blue. The reaction products were separated by denaturing gel electrophoresis at a constant power of 45 W on 16% polyacrylamide gels containing 50% urea.
(§6) Gels were scanned for Cy3 fluorescence on a Molecular Dynamics Fluorimager and the data analysed using Molecular Dynamics ImageQuant 5 software.
(§7) The incorporation of a test nucleotide triphosphate results in the appearance on a polyacrylamide gel of a single band corresponding to a single base extension product. If, however, the enzyme adds additional bases then further bands would be observed that corresponded to either the full-length product or positions of other complementary bases in the template.

Tth DNA polymerase = target: T3, Tth DNA polymerase (Thermus thermophilus, UniProt P52028); experiment: Thermostable polymerase under reverse transcription conditions, Tth; parameters: key to result of incorporation (termination / further chain extension): T: Incorporation results in termination; E: Incorporation permits further chain extension; T/E: Predominant product is primer extended by one base, but evidence of some further extension also observed; key to primer extended by at least one base within assay time (grade): −: No extension within assay time; +/−: up to 25% of primer extended by at least one base within assay time; +: up to 50% of primer extended by at least one base within assay time; ++: up to 75% of primer extended by at least one base within assay time; +++: essentially all primer extended by at least one base within assay time; details: RNA template, 2.5 mM Manganese ions; for primer extended by at least one base within assay time (grade): Tth reaction buffer
T3 construct: purchased APBiotech
Method: as §1, §2, §3, §4
Reverse transcriptase reactions were performed essentially as described above for thermophilic and mesophilic enzymes. The template for these reactions was the RNA equivalent of sequence 2. All the thermophilic enzymes were assayed in Tth reaction buffer (Cambio Ltd, Cambridge UK) containing 2.5 mM Manganese ions. The following enzymes were used: Thermosequenase (TS1); Thermosequenase II (TSII); delta Tts DNA polymerase (deltaTts); delta Tts D DNA polymerase (deltaTtsD) (all from APBiotech); Retrotherm reverse transcriptase (Retroth) (Cambio Ltd); Tth DNA polymerase (Tth) (Cambio Ltd.).
as §5, §6, §7

T3 sequence (P52028 whole entry): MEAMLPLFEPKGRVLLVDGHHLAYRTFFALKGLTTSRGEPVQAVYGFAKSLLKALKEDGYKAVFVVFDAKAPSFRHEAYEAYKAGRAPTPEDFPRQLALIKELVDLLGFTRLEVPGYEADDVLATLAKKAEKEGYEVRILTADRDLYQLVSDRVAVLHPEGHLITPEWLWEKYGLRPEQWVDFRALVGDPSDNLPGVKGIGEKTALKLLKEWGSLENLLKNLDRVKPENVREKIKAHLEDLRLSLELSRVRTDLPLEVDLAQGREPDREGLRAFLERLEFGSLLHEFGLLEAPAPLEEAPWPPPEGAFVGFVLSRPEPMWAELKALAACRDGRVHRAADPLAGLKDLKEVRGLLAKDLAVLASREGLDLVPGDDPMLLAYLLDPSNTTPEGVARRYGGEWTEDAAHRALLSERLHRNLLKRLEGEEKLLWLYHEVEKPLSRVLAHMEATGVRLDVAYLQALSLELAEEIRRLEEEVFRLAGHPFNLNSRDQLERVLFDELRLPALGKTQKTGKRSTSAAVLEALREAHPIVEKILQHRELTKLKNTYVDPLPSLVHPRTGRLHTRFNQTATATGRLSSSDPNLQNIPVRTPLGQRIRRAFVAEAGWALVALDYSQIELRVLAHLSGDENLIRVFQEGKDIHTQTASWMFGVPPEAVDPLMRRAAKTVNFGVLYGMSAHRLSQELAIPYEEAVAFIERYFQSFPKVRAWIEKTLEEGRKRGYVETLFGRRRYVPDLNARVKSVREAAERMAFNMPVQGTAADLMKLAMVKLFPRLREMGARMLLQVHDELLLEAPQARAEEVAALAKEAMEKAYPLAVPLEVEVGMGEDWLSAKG
T2 sequence (P03680 whole entry): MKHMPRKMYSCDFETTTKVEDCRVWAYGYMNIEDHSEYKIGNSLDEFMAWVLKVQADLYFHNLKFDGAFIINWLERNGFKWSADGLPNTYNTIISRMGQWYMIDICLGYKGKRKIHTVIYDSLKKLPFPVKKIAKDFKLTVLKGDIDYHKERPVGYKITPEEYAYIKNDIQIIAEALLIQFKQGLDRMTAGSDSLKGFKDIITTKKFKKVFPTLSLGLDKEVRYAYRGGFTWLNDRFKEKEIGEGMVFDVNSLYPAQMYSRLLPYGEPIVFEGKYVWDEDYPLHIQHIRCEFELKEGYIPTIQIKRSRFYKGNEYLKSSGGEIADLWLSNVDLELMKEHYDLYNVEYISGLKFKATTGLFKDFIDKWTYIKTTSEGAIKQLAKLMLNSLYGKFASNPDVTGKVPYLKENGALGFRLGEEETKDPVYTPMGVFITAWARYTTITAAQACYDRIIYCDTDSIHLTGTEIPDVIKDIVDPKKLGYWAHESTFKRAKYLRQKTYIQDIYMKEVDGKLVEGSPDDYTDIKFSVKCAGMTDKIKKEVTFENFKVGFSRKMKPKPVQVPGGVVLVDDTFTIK

Molecule | primer extended by at least one base within assay time (grade) (Pfu DNA polymerase) | result of incorporation (termination / further chain extension) (phi-29 DNA polymerase) | primer extended by at least one base within assay time (grade) (phi-29 DNA polymerase) | result of incorporation (termination / further chain extension) (Tth DNA polymerase) | primer extended by at least one base within assay time (grade) (Tth DNA polymerase)
4′-C-(Aminomethyl)thymidine triphosphate [compound (9)] | − | T | +/− (up to 25% of primer extended by at least one base within assay time) | T | +++
Cc1cn([C@H]2C[C@H](O)[C@@](CNC(=O)C(F)(F)F)(COP(=O)(O)OP(=O)(O)OP(=O)(O)O)O2)c(=O)[nH]c1=O [compound (8), 4′-C-(N-trifluoroacetylaminomethyl)thymidine triphosphate] | − | T | +/− (up to 25% of primer extended by at least one base within assay time) | T | +++
4′-C-(Glycylaminomethyl)thymidine triphosphate [compound (6)] | − | T | +/− (up to 25% of primer extended by at least one base within assay time) | T | +++
